Where “and” joins values, the source holds several entries; their conditions need not be identical. Identical values can stand only once. Toxic doses and inconclusive results are not listed. Cut-off read from the data, not from the text of the source: active = T/C of 150% or more; inactive = T/C below 125%.
Test system: L1210 leukemia ip in BDF1 mice, survival T/C
Experiment: NCI In Vivo Anticancer Drug Screen. Data for tumor model L1210 Leukemia (intraperitoneal) in B6D2F1 (BDF1) mice
Details: endpoint: mean survival time, higher = longer survival
How it was run: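 Tumor was transplanted into mice, which were then dosed with test compound or vehicle alone. Survival was recorded for each group, and the treated figure was expressed relative to the control figure.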

[1] = dose: 100.0 mg/kg/injection, schedule: Q01DX009 (ip), vehicle: Klucel (hydroxypropylcellulose) (HPC)
[2] = dose: 200.0 mg/kg/injection, schedule: Q01DX009 (ip), vehicle: Klucel (hydroxypropylcellulose) (HPC)
[3] = dose: 100.0 mg/kg/injection, schedule: Q04DX003 (ip), vehicle: Klucel (hydroxypropylcellulose) (HPC)
[4] = dose: 200.0 mg/kg/injection, schedule: Q04DX003 (ip), vehicle: Klucel (hydroxypropylcellulose) (HPC)
[5] = dose: 50.0 mg/kg/injection, schedule: Q01DX009 (ip), vehicle: saline
[6] = dose: 100.0 mg/kg/injection, schedule: Q01DX009 (ip), vehicle: saline

Measured: T/C

NCCCSc1ccc(Br)cc1
inactive: dose: 75.0 mg/kg/injection, schedule: Q01DX001 (ip), vehicle: other 102 % of control | dose: 150.0 mg/kg/injection, schedule: Q01DX001 (ip), vehicle: other 96 % of control | dose: 300.0 mg/kg/injection, schedule: Q01DX001 (ip), vehicle: other 92 % of control

CN(C(=O)Nc1cccc(C(F)(F)F)c1)c1ccccc1
inactive: [1] 98 % of control | [2] 96 % of control | dose: 400.0 mg/kg/injection, schedule: Q01DX009 (ip), vehicle: Klucel (hydroxypropylcellulose) (HPC) 101 % of control

CCCCCCCCCCC(=O)N1CCCCC1
inactive: dose: 100.0 mg/kg/injection, schedule: Q04DX002 (ip), vehicle: saline 100 % of control | dose: 200.0 mg/kg/injection, schedule: Q04DX002 (ip), vehicle: saline 96 % of control | dose: 400.0 mg/kg/injection, schedule: Q04DX002 (ip), vehicle: saline 96 % of control

Cc1cnc(N)cn1 (tested in a mixture with another compound)
inactive: [3] 102 % of control | [4] 109 % of control | dose: 400.0 mg/kg/injection, schedule: Q04DX003 (ip), vehicle: Klucel (hydroxypropylcellulose) (HPC) 88 % of control

CC[N+](CC)(CC)CCC[n+]1ccc(/C=N\O)cc1
inactive: dose: 25.0 mg/kg/injection, schedule: Q04DX003 (ip), vehicle: saline 100 % of control | [5] 112 % of control | dose: 50.0 mg/kg/injection, schedule: Q04DX003 (ip), vehicle: saline 100 % of control | [6] 102 % of control | dose: 100.0 mg/kg/injection, schedule: Q04DX003 (ip), vehicle: saline 100 % of control and 92 % of control

COc1ccc(C(C#N)N2CCOCC2)cc1 (centres undefined)
inactive: dose: 50.0 mg/kg/injection, schedule: Q01DX009 (ip), vehicle: Klucel (hydroxypropylcellulose) (HPC) 92 % of control | [1] 93 % of control | [3] 96 % of control | [2] 96 % of control | [4] 91 % of control

NC(=O)c1[nH]cnc1[N+]1=NN(c2ccccc2)CC1
inactive: [5] 102 % of control | [6] 94 % of control | dose: 200.0 mg/kg/injection, schedule: Q01DX009 (ip), vehicle: saline 102 % of control

OCCC1CNCCN1.[Cl][Pd]([Cl])([Cl])[Cl] (centres undefined)
inactive: dose: 100.0 mg/kg/injection, schedule: Q01DX001 (ip), vehicle: DMSO 98 % of control | dose: 200.0 mg/kg/injection, schedule: Q01DX001 (ip), vehicle: DMSO 91 % of control

O=C(Nc1ccccc1C(F)(F)F)OCCOc1ccccc1
inactive: dose: 100.0 mg/kg/injection, schedule: Q01DX009 (ip), vehicle: gum acacia 92 % of control | dose: 200.0 mg/kg/injection, schedule: Q01DX009 (ip), vehicle: gum acacia 88 % of control | dose: 400.0 mg/kg/injection, schedule: Q01DX009 (ip), vehicle: gum acacia 93 % of control

CC(=O)NC(C)(NC(=O)CCl)C(=O)O (centres undefined)
inactive: dose: 100.0 mg/kg/injection, schedule: Q01DX001 (ip), vehicle: saline with Tween-80 98 % of control | dose: 100.0 mg/kg/injection, schedule: Q01DX009 (ip), vehicle: saline with Tween-80 94 % of control and 108 % of control | dose: 100.0 mg/kg/injection, schedule: Q04DX002 (ip), vehicle: saline with Tween-80 96 % of control and 101 % of control | dose: 100.0 mg/kg/injection, schedule: Q04DX003 (ip), vehicle: saline with Tween-80 106 % of control | dose: 200.0 mg/kg/injection, schedule: Q01DX001 (ip), vehicle: saline with Tween-80 102 % of control | dose: 200.0 mg/kg/injection, schedule: Q01DX009 (ip), vehicle: saline with Tween-80 89 % of control and 90 % of control | dose: 200.0 mg/kg/injection, schedule: Q04DX002 (ip), vehicle: saline with Tween-80 93 % of control and 104 % of control | dose: 200.0 mg/kg/injection, schedule: Q04DX003 (ip), vehicle: saline with Tween-80 98 % of control | dose: 400.0 mg/kg/injection, schedule: Q01DX001 (ip), vehicle: saline with Tween-80 107 % of control | dose: 400.0 mg/kg/injection, schedule: Q01DX009 (ip), vehicle: saline with Tween-80 97 % of control | dose: 400.0 mg/kg/injection, schedule: Q04DX002 (ip), vehicle: saline with Tween-80 95 % of control and 101 % of control

CCN1C(=O)CN=C(c2ccccn2)c2cc(Cl)ccc21
inactive: dose: 100.0 mg/kg/injection, schedule: Q01DX001 (ip), vehicle: Klucel (hydroxypropylcellulose) (HPC) 95 % of control | dose: 200.0 mg/kg/injection, schedule: Q01DX001 (ip), vehicle: Klucel (hydroxypropylcellulose) (HPC) 101 % of control | dose: 400.0 mg/kg/injection, schedule: Q01DX001 (ip), vehicle: Klucel (hydroxypropylcellulose) (HPC) 96 % of control
